This experiment deals with T1, DPP-IV (Homo sapiens, UniProt P27487).
T1 construct: in an in vivo protocol study in humans; from tissue; host or cells: human subjects (in vivo)
The experiment in a line: in vivo protocol study in humans: selectivity of DPP-IV inhibition over other dipeptidyl peptidases. The conditions noted are these: other dipeptidyl peptidases named in the block: DPP-VII, DPP-VIII, DPP-IX, FAP.

T1 sequence (P27487 whole entry): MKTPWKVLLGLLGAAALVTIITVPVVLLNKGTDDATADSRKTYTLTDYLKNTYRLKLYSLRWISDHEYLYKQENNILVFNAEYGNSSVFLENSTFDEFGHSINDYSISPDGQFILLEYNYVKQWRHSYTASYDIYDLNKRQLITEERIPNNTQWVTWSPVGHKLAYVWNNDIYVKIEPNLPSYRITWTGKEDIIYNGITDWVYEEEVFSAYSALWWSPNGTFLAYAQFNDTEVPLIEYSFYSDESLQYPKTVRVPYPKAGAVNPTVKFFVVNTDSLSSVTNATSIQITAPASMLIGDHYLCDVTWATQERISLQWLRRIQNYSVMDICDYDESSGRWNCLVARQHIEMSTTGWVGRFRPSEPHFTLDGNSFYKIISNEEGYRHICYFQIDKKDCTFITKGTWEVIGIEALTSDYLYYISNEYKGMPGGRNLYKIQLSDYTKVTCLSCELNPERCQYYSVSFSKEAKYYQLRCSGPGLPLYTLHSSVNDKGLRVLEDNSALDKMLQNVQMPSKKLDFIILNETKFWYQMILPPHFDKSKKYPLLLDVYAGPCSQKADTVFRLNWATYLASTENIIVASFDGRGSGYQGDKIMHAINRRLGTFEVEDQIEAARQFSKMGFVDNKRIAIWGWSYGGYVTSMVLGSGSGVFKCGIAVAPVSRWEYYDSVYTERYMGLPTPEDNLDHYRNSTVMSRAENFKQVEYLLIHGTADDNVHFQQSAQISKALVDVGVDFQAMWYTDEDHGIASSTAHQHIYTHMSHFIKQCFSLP

Consider `O=C(CN[C@@H]1CCNC1)N1CCC[C@H]1B(O)O` [compound of formula (I), dutogliptin], for which the “selectivity for inhibition of DPP-IV over the other amino dipeptidyl peptidases” value was “maintained selectivity for inhibition of DPP-IV over the other amino dipeptidyl peptidases”.
